For one experiment, the target named is T1, PI3K delta (Homo sapiens, UniProt O00329).
T1 construct: for the full-length p110-d subunit are generated and fused by overlapping PCR; His tag (C); made in house; host or cells: baculovirus BV1060; Tn5 (Trichoplusia ni) or TiniPro insect cells
The experiment is described as follows: Enzymatic PI3K delta isoform inhibition (lipid kinase activity, Kinase-Glo). To be noted: enzymatic assay. It counts as biochemical. The procedure:
(§1) The components of the assay are added per well as follows:
(§2) IC50 is determined by a four parameter curve fitting routine that comes along with “excel fit”.
(§3) Yet alternatively, for an ATP depletion assay, compounds of the formula I to be tested are dissolved in DMSO and directly distributed into a white 384-well plate at 0.5 μl per well. To start the reaction, 10 μl of 10 nM PI3 kinase and 5 μg/ml 1-alpha-phosphatidylinositol (PI) are added into each well followed by 10 μl of 2 μM ATP. The reaction is performed until approx 50% of the ATP is depleted, and then stopped by the addition of 20 μl of Kinase-Glo solution (Promega Corp., Madison, Wis., USA). The stopped reaction is incubated for 5 minutes and the remaining ATP is then detected via luminescence. IC50 values are then determined.
(In general: Kinase-Glo measures the ATP left after a reaction by luminescence.)

The target of a further experiment is T2, PI3K alpha (Homo sapiens, UniProt P42336).
T2 construct: for the p110-a subunit (with a deletion of the first 20 amino acids) are generated; His tag (C); made in house; host or cells: baculovirus BV1075; Tn5 (Trichoplusia ni) or TiniPro insect cells
T2 sequence (P42336 with tags, fused parts or gaps limits assumed, species assumed): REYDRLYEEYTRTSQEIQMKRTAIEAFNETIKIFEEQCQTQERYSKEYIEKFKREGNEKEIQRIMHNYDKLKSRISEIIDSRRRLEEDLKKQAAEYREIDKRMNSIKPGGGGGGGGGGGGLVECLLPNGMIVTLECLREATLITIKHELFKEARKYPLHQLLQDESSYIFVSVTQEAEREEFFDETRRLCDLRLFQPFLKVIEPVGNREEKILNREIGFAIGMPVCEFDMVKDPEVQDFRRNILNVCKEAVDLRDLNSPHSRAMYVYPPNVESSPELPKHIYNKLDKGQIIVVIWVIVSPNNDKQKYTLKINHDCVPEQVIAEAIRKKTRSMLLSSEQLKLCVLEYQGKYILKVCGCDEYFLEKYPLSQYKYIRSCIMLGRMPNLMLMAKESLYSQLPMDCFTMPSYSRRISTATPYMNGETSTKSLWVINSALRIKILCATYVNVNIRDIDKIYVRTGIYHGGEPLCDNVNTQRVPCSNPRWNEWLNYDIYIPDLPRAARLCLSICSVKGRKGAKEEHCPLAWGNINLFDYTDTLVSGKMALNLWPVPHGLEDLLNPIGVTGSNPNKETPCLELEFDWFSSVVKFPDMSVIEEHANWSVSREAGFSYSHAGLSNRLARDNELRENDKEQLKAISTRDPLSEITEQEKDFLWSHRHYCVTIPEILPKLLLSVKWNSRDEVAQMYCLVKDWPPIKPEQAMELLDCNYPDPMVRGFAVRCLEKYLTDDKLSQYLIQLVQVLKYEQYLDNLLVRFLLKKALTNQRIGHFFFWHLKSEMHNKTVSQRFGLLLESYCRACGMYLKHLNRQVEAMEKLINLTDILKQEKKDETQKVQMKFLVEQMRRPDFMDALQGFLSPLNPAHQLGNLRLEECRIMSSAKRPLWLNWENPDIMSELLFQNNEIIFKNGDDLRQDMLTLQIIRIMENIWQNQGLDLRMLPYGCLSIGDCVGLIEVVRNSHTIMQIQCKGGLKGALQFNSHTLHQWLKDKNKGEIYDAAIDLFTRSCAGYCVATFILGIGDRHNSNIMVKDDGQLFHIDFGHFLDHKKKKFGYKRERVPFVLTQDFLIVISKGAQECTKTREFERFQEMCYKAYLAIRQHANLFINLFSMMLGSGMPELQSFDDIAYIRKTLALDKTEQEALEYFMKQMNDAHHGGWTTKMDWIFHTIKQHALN
Nature of the experiment: Enzymatic PI3K alpha isoform inhibition (lipid kinase activity, Kinase-Glo). In kind it is biochemical. The note with it: enzymatic assay. The method, then: as §1, §2, §3

A value given as a limit tells only on which side of the number the result lay.

T1 sequence (O00329 with tags, fused parts or gaps limits assumed, species assumed): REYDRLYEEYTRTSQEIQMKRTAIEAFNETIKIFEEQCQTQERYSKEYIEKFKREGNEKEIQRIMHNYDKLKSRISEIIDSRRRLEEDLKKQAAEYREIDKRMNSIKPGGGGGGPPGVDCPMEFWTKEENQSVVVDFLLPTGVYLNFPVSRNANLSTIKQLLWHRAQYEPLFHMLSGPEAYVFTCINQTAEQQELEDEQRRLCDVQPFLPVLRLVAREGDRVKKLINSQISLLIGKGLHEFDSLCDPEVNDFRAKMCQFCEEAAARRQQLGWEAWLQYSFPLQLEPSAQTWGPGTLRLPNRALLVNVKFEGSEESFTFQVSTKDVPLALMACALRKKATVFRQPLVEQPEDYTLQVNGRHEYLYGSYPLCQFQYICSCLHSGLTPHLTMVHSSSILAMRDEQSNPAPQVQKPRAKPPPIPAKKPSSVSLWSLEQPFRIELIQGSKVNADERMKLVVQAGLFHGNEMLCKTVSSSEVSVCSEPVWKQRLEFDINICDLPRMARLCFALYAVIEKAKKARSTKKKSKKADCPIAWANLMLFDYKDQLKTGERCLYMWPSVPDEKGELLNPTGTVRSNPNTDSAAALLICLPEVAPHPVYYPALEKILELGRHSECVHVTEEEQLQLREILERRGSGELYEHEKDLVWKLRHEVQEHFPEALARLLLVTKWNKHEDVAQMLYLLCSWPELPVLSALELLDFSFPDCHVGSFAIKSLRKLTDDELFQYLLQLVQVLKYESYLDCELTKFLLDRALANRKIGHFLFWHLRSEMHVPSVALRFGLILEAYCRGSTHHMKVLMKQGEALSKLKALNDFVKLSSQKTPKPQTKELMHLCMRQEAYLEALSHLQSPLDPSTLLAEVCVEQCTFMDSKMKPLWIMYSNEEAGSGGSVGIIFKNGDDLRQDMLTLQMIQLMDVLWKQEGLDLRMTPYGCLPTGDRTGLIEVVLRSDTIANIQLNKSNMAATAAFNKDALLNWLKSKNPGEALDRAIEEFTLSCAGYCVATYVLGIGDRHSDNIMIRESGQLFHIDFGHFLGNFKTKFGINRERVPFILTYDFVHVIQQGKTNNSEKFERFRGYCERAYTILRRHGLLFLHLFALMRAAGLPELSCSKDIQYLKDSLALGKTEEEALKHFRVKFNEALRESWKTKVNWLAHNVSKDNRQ

With `COc1ncc(-c2ccc3ncnc(-c4cncc(C(=O)N5CCN(C)C(C)(C)C5)c4)c3c2)cc1C` [Example 72], the figures for the half-inhibitory concentration (IC50) against PI3K delta and at PI3K alpha were 3 nM and 69.5 nM, respectively.

On to `COc1ncc(-c2ccc3ncnc(-c4cncc(C(=O)N5CCOC(C)(C)C5)c4)c3c2)cc1C#N` [Example 62], for which the 50% inhibitory concentration (IC50) at PI3K delta came to 7 nM; against PI3K alpha, 1150 nM.

Consider `COc1ccc(-c2ccc3ncnc(-c4cncc(C(=O)N5C[C@@H]6C[C@H]5CN6)c4)c3c2)cc1C(F)(F)F` [Example 85, (1S,4S)-2,5-Diaza-bicyclo[2.2.1]hept-2-yl-{5-[6-(4-methoxy-3-trifluoromethyl-phenyl)-quinazolin-4-yl]-pyridin-3-yl}-methanone], for which the concentration for half-maximal inhibition (IC50) is 7 nM against PI3K delta and 793 nM against PI3K alpha.

For the molecule `COc1ncc(-c2ccc3ncnc(-c4cc(C)cc(C(=O)N5CCN(C(C)=O)CC5)c4)c3c2)cc1C#N` [Example 109, 5-{4-[3-(4-Acetyl-piperazine-1-carbonyl)-5-methyl-phenyl]-quinazolin-6-yl}-2-methoxy-nicotinonitrile], the half-inhibitory concentration (IC50) against PI3K delta was 14 nM; against PI3K alpha, 435 nM.

`CCOc1ccc(-c2ccc3ncnc(-c4cccc(C(=O)N5CCN(C)C(C)(C)C5)c4)c3c2)cn1` [Example 27]: the IC50 at PI3K delta came out at 18.5 nM; on PI3K alpha it was 404 nM.

As to `CNc1ncc(-c2ccc3ncnc(-c4cccc(C(=O)N5CCN(C)CC5)c4)c3c2)cc1C` [Example 40, {3-[6-(5-Methyl-6-methylamino-pyridin-3-yl)-quinazolin-4-yl]-phenyl}-(4-methyl-piperazin-1-yl)-methanone], the IC50 came to 3 nM against PI3K delta and 270 nM against PI3K alpha.

In the case of `CN1CCN(C(=O)c2cccc(-c3ncnc4ccc(-c5ccc(N6CCNCC6)nc5)cc34)c2)CC1` [Example 18], the results for the IC50 against PI3K delta and at PI3K alpha were 42.1 nM and 1290 nM, respectively.

As to `COc1cc(C(=O)N2CCN(C(C)=O)CC2)cc(-c2ncnc3ccc(-c4cnc(OC)c(C#N)c4)cc23)c1` [Example 105, 5-{4-[3-(4-Acetyl-piperazine-1-carbonyl)-5-methoxy-phenyl]-quinazolin-6-yl}-2-methoxy-nicotinonitrile], the IC50 against PI3K delta turned out to be 7 nM; on PI3K alpha it was 720 nM.

As to `COc1ccc(-c2ccc3ncnc(-c4cncc(C(=O)N5C[C@@H]6C[C@H]5CN6C)c4)c3c2)cn1` [Example 77, {5-[6-(6-Methoxy-pyridin-3-yl)-quinazolin-4-yl]-pyridin-3-yl}-((1S,4S)-5-methyl-2,5-diaza-bicyclo[2.2.1]hept-2-yl)-methanone], the IC50 at PI3K delta turned out to be 14 nM; at PI3K alpha, 573 nM.

On to `COc1ccc(-c2ccc3ncnc(-c4cc(C(=O)N5CCN(C(C)=O)CC5)cc(C(F)(F)F)c4)c3c2)cn1` [Example 101, 1-(4-{3-[6-(6-Methoxy-pyridin-3-yl)-quinazolin-4-yl]-5-trifluoromethyl-benzoyl}-piperazin-1-yl)-ethanone], for which the concentration for half-maximal inhibition (IC50) against PI3K delta was 16 nM; on PI3K alpha, 1270 nM.

For `COc1ccc(-c2ccc3ncnc(-c4cncc(C(=O)N5CC(C)NC(C)C5)c4)c3c2)cc1C(F)(F)F` (stereo not shown) [Example 80, (3,5-Dimethyl-piperazin-1-yl)-{5-[6-(4-methoxy-3-trifluoromethyl-phenyl)-quinazolin-4-yl]-pyridin-3-yl}-methanone], the IC50 is 10.5 nM against PI3K delta and 717 nM at PI3K alpha.

As for `COc1ncc(-c2ccc3ncnc(-c4cccc(C(=O)N5CCOCC5)c4)c3c2)cc1C#N` [Example 30], the concentration for half-maximal inhibition (IC50) against PI3K delta stood at 6.67 nM; against PI3K alpha, 387 nM.

On to `CN1CCN(C(=O)c2cccc(-c3ncnc4ccc(-c5cnc(N(C)C)nc5)cc34)c2)CC1` [Example 11], for which the IC50 against PI3K delta turned out to be 28 nM; against PI3K alpha it was 1070 nM.

Turning to `CN1CCN(C(=O)c2cccc(-c3ncnc4ccc(-c5cc(NS(C)(=O)=O)cc(C(F)(F)F)c5)cc34)c2)CC1` [Example 47], the values for the IC50 against PI3K delta and against PI3K alpha were 27 nM and over 9100 nM, respectively.

The term IC50 denotes the concentration needed to halve the response being measured. Higher therefore signals weaker potency.

The values are drawn from US20140249139A1, “Quinazoline Derivatives” (NOVARTIS AG, priority 2011, published 2014).
